Results: US20230286983A1 (4E Therapeutics, Inc., priority 2020, published 2023)

Assays:
MNK1 = MNK1 (Homo sapiens, UniProt Q9BUB5); assay: MNK1 substrate phosphorylation assay; format: biochemical; conditions: recombinant human kinase
[1] = system: eIF4E phosphorylation at Serine 209 in the human embryonic kidney (HEK) 293 cell line; assay: eIF4E phosphorylation in HEK 293 cells (fluorescent plate reader); format: cell-based; conditions: eIF4E phosphorylation at Serine 209, 2 hours exposure
Experimental: The ability of MNK inhibitors described herein to inhibit eIF4E phosphorylation at Serine 209 in the human embryonic kidney (HEK) 293 cell line was tested by exposing the cells to compound for 2 hours and then measuring eIF4E phosphorylation with a phosphorylation-specific antibody in a fluorescent plate reader. These experiments were done with HEK-293 cells plated on 96 well plates. Following treatment, cells were fixed with ice cold methanol for 10 min and then washed in 1× phosphate buffered saline (PBS) and the permeabilized with 0.02% Triton X-100 in 10% normal goat serum made up in PBS. Primary antibody was applied overnight at a concentration dilution of 1:2000 (p-eIF4E antibody from Cell Signaling ab76256). Following washing, cells were then exposed to secondary antibody conjugated to alexa-fluor 488 and then visualized on a Syngergy HTX plate reader. Fluorescence for p-eIF4E was measured and normalized to total DAPI fluorescence to determine the percentage of eIF4E phosphorylation in each well. Data were plotted in Graphpad Prism V8 to determine concentration-response effects and calculate IC50 values.

[2] = Liver microsome stability, mouse; format: in vitro ADME; conditions: for half-life: mouse, liver microsomes
P-gp (human MDR1, ABCB1) = assay: MDCK-MDR1 permeability (blood brain barrier permeability); format: in vitro ADME, Canine; conditions: dog; for efflux ratio at 5 μM: MDCK-MDR1, 5 μM, read-out: Efflux ratio (ratio B-A/A-B); for Papp A→B at 5 μM: MDCK-MDR1, Apical to basolateral transport; for Papp A→B at 5 μM / Papp B→A at 5 μM: average of two experiments; for Papp B→A at 5 μM: MDCK-MDR1, Basolateral to apical transport
MNK2 = MNK2 (Homo sapiens, UniProt Q9HBH9); assay: MNK2 substrate phosphorylation assay; format: biochemical; conditions: recombinant human kinase
[3] = Liver microsome stability, rat; format: in vitro ADME; conditions: Rat liver microsomes (#); for microsomal CLint: read-out: CLint rodent; for half-life: read-out: Rodent liver microsomes t1/2
[4] = Liver microsome stability, human; format: in vitro ADME; conditions: liver microsomes; for half-life: read-out: Human liver microsomes t1/2
[5] = mouse liver microsomes, Table 11b, read-out: T1/2

MNK1, sequence (Q9BUB5 whole entry): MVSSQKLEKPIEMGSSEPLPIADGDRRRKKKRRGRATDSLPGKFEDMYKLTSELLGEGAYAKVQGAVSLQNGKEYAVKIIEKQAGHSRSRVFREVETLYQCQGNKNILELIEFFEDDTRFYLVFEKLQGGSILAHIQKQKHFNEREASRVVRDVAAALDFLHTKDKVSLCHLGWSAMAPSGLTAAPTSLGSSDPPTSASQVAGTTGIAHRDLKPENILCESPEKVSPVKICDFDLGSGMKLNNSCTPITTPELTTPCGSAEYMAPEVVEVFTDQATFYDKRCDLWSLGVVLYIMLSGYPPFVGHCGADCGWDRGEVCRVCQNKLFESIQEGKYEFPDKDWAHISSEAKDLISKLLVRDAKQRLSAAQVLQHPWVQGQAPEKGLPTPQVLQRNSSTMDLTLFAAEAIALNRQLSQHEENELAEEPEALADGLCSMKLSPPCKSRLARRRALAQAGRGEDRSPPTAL
MNK2, sequence (Q9HBH9 whole entry): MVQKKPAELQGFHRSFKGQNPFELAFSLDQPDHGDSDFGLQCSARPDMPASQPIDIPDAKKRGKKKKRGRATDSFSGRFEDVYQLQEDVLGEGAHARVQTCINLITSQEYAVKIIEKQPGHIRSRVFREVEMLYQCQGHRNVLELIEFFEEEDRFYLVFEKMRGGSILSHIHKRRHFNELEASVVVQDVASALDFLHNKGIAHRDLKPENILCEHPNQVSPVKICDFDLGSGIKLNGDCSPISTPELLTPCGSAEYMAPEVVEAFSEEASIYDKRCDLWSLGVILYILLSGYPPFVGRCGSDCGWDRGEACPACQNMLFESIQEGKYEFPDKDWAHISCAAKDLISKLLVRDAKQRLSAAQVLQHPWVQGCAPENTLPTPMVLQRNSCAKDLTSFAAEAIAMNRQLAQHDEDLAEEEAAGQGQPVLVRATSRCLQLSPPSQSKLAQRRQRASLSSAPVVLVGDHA

Compound	IC50 (MNK1)	IC50 (MNK2)	IC50 ([1]; Homo sapiens, HEK293, 2 h)	also measured
Cc1cc(Nc2cc(N)ncn2)c(=O)n2c1C(=O)NC21Cc2ccccc2[C@@H]1F (single isomer, unassigned) [Compound 4ET-01-010A, 6-((6-Aminopyrimidin-4-yl)amino)-1′-fluoro-8-methyl-1′,3′-dihydro-2H-spiro[imidazo[1,5-a]pyridine-3,2′-indene]-1,5-dione]	73.4 nM	9.24 nM		IC50 [1]: 35.4 nM; half-life [2, 5]: 1.92 h; efflux ratio at 5 μM (P-gp (human MDR1, ABCB1)): 1.5; Papp A→B at 5 μM (P-gp (human MDR1, ABCB1)): 42.7 ×10⁻⁶ cm/s; Papp B→A at 5 μM (P-gp (human MDR1, ABCB1)): 63.9 ×10⁻⁶ cm/s
Cc1cc(Nc2cc(N)ncn2)c(=O)n2c1C(=O)NC21Cc2ccccc2[C@@H]1F (single isomer, unassigned) [Compound 4ET-01-010B, 6-((6-Aminopyrimidin-4-yl)amino)-1′-fluoro-8-methyl-1′,3′-dihydro-2H-spiro[imidazo[1,5-a]pyridine-3,2′-indene]-1,5-dione]	348 nM	96.6 nM		IC50 [1]: 71.3 nM
Cc1cc(Nc2cc(NC(=O)C3CC3)ncn2)c(=O)n2c1C(=O)NC21Cc2ccccc2[C@@H]1O (stereo in doubt) [Compound 4ET-03-063, N-(6-((1′-Hydroxy-8-methyl-1,5-dioxo-1,1′,3′,5-tetrahydro-2H-spiro[imidazo[1,5-a]pyridine-3,2′-inden]-6-yl)amino)pyrimidin-4-yl)cyclopropanecarboxamide]	35 nM	3 nM	17 nM	half-life [2, 5]: 3.7 h; efflux ratio at 5 μM (P-gp (human MDR1, ABCB1)): 10.2; Papp A→B at 5 μM (P-gp (human MDR1, ABCB1)): 8.7 ×10⁻⁶ cm/s; Papp B→A at 5 μM (P-gp (human MDR1, ABCB1)): 64.9 ×10⁻⁶ cm/s
Cc1cc(Nc2cc(N)ncn2)c(=O)n2c1C(=O)NC21CCCC1 [Compound 4ET-01-001, 6′-((6-Aminopyrimidin-4-yl)amino)-8′-methyl-2′H-spiro[cyclopentane-1,3′-imidazo[1,5-a]pyridine]-1′,5′-dione]				IC50 ([1]; Homo sapiens, HEK293): 10.9 nM
CC1=CC2(CCC1)NC(=O)c1c(C)cc(Nc3cc(N)ncn3)c(=O)n12 (stereo not shown) [Compound 4ET-01-058, 6′-((6-Aminopyrimidin-4-yl)amino)-3,8′-dimethyl-2′H-spiro[cyclohexane-1,3′-imidazo[1,5-a]pyridin]-2-ene-1′,5′-dione]	58.4 nM	6.5 nM	10.9 nM	half-life [2, 5]: 7.67 h; efflux ratio at 5 μM (P-gp (human MDR1, ABCB1)): 1.1; Papp A→B at 5 μM (P-gp (human MDR1, ABCB1)): 57.8 ×10⁻⁶ cm/s; Papp B→A at 5 μM (P-gp (human MDR1, ABCB1)): 61.2 ×10⁻⁶ cm/s
Cc1cc(Nc2cc(N3CCN(CCN(C)C)CC3)ncn2)c(=O)n2c1C(=O)NC21CCCCC1 [Compound 4ET-02-002]				MNK1 IC50 (MNK1): inactive; MNK2 IC50 (MNK2): inactive
Cc1cc(Nc2cc(NC(=O)C3CC3)ncn2)c(=O)n2c1C(=O)NC21CCCCC1 [Compound 4ET-02-003, N-(6-((8′-Methyl-1′,5′-dioxo-1′,5′-dihydro-2′H-spiro[cyclohexane-1,3′-imidazo[1,5-a]pyridin]-6′-yl)amino)pyrimidin-4-yl)cyclopropanecarboxamide]	140 nM	4.1 nM	1.4 nM	microsomal CLint [3]: 3.75 µL/min/mg; half-life [3]: 6.17 h; microsomal CLint [4]: 2.31 µL/min/mg; half-life [4]: 9.98 h
Cc1cc(Nc2cc(NCCC(=O)O)ncn2)c(=O)n2c1C(=O)NC21CCCCC1 [Compound 4ET-02-006, 3-((6-((8′-Methyl-1′,5′-dioxo-1′,5′-dihydro-2′H-spiro[cyclohexane-1,3′-imidazo[1,5-a]pyridin]-6′-yl)amino)pyrimidin-4-yl)amino)propanoic acid]	346 nM	14.4 nM		efflux ratio at 5 μM (P-gp (human MDR1, ABCB1)): 0.8; Papp A→B at 5 μM (P-gp (human MDR1, ABCB1)): 0.1 ×10⁻⁶ cm/s; Papp B→A at 5 μM (P-gp (human MDR1, ABCB1)): 0.1 ×10⁻⁶ cm/s
Cc1cc(Nc2cc(NC(=O)CN3CCOCC3)ncn2)c(=O)n2c1C(=O)NC21CCCCC1 [Compound 4ET-02-007, N-(6-((8′-Methyl-1′,5′-dioxo-1′,5′-dihydro-2′H-spiro[cyclohexane-1,3′-imidazo[1,5-a]pyridin]-6′-yl)amino)pyrimidin-4-yl)-2-morpholinoacetamide]	89 nM	3.6 nM		microsomal CLint [4]: 6.42 µL/min/mg; half-life [4]: 3.6 h; microsomal CLint ([2]; Mouse liver microsomes (*), read-out: CLint rodent): 8.7 µL/min/mg; half-life ([2]; Mouse liver microsomes (*), Table 11a, read-out: Rodent liver microsomes t1/2): 2.65 h; efflux ratio at 5 μM (P-gp (human MDR1, ABCB1)): 5.6; Papp A→B at 5 μM (P-gp (human MDR1, ABCB1)): 7.3 ×10⁻⁶ cm/s; Papp B→A at 5 μM (P-gp (human MDR1, ABCB1)): 40.8 ×10⁻⁶ cm/s
Cc1cc(Nc2cc(NC(=O)C(C)C)ncn2)c(=O)n2c1C(=O)NC2(C)C [Compound 4ET-03-001]	119 nM	11.9 nM	47 nM	
Cc1cc(Nc2cc(NC(=O)C3CC3)ncn2)c(=O)n2c1C(=O)NC2(C)C [Compound 4ET-03-002, N-(6-((3,3,8-Trimethyl-1,5-dioxo-1,2,3,5-tetrahydroimidazo[1,5-a]pyridin-6-yl)amino)pyrimidin-4-yl)cyclopropanecarboxamide]	133 nM			IC50 ([1]; Homo sapiens, HEK293): 5.3 nM
Cc1cc(Nc2cc(NCCN3CCOCC3)ncn2)c(=O)n2c1C(=O)NC2(C)C [Compound 4ET-03-003]	80.2 nM	22.6 nM	110 nM	
Cc1cc(Nc2cc(NCCO)ncn2)c(=O)n2c1C(=O)NC2(C)C [Compound 4ET-03-004]	84.5 nM	7.7 nM	86.6 nM	
Cc1cc(Nc2cc(NCCO)ncn2)c(=O)n2c1C(=O)NC21CCCC1 [Compound 4ET-03-007, 6′-((6-((2-Hydroxyethyl)amino)pyrimidin-4-yl)amino)-8′-methyl-2′H-spiro[cyclopentane-1,3′-imidazo[1,5-a]pyridine]-1′,5′-dione]	96.7 nM	4.9 nM	10 nM	efflux ratio at 5 μM (P-gp (human MDR1, ABCB1)): 6.3; Papp A→B at 5 μM (P-gp (human MDR1, ABCB1)): 2.4 ×10⁻⁶ cm/s; Papp B→A at 5 μM (P-gp (human MDR1, ABCB1)): 15.1 ×10⁻⁶ cm/s
Cc1cc(Nc2cc(NC(=O)C3CC3)ncn2)c(=O)n2c1C(=O)NC2(C)c1cccc(Cl)c1 (stereo not shown) [Compound 4ET-03-035]	128 nM	4.3 nM	8.7 nM	

The next lines start with results.

IC50 (MNK1)	IC50 (MNK2)	Compound	IC50 ([1]; Homo sapiens, HEK293, 2 h)	also measured
45.1 nM	10.4 nM	Cc1cc(Nc2cc(NCCN3CCOCC3)ncn2)c(=O)n2c1C(=O)NC21CCCCC1 [Compound 4ET-02-005]	22.5 nM	microsomal CLint [3]: 13.6 µL/min/mg; half-life [3]: 1.7 h; microsomal CLint [4]: 5.64 µL/min/mg; half-life [4]: 4.1 h; efflux ratio at 5 μM (P-gp (human MDR1, ABCB1)): 9.4; Papp A→B at 5 μM (P-gp (human MDR1, ABCB1)): 4.5 ×10⁻⁶ cm/s; Papp B→A at 5 μM (P-gp (human MDR1, ABCB1)): 42.2 ×10⁻⁶ cm/s
64.6 nM	5.9 nM	Cc1cc(Nc2cc(NCCN3CCOCC3)ncn2)c(=O)n2c1C(=O)NC21CCCC1 [Compound 4ET-03-006, 8′-Methyl-6′-((6-((2-morpholinoethyl)amino)pyrimidin-4-yl)amino)-2′H-spiro[cyclopentane-1,3′-imidazo[1,5-a]pyridine]-1′,5′-dione]	53 nM	
65.5 nM	7.4 nM	Cc1cc(Nc2cc(NC(=O)C(C)C)ncn2)c(=O)n2c1C(=O)NC21CCOCC1 [Compound 4ET-03-008]	52.6 nM	
382 nM	84.8 nM	Cc1cc(Nc2cc(NCCN3CCOCC3)ncn2)c(=O)n2c1C(=O)NC21CCOCC1 [Compound 4ET-03-010]	164 nM	
203 nM	27.8 nM	Cc1cc(Nc2cc(NCCO)ncn2)c(=O)n2c1C(=O)NC21CCOCC1 [Compound 4ET-03-011]	32.4 nM	
441 nM	273 nM	Cc1cc(Nc2cc(NCCNS(C)(=O)=O)ncn2)c(=O)n2c1C(=O)NC2(C)C [Compound 4ET-03-012]		
107 nM	32.8 nM	Cc1cc(Nc2cc(NCCNS(C)(=O)=O)ncn2)c(=O)n2c1C(=O)NC21CCOCC1 [Compound 4ET-03-014]		
118 nM	5.65 nM	Cc1cc(Nc2cc(NC(=O)C3CC3)ncn2)c(=O)n2c1C(=O)NC21CCOc2ccc(Cl)cc21 (stereo not shown) [Compound 4ET-03-036]	8.6 nM	
31.6 nM	1.62 nM	CCC1=CC2(CCC1)NC(=O)c1c(C)cc(Nc3cc(NC(=O)C4CC4)ncn3)c(=O)n12 (stereo not shown) [Compound 4ET-03-039, N-(6-((3-Ethyl-8′-methyl-1′,5′-dioxo-1′,5′-dihydro-2′H-spiro[cyclohexane-1,3′-imidazo[1,5-a]pyridin]-2-en-6′-yl)amino)pyrimidin-4-yl)cyclopropanecarboxamide]	2.6 nM	
118 nM	5.7 nM	Cc1cc(Nc2cc(NC(=O)C3CC3)ncn2)c(=O)n2c1C(=O)NC21Cc2ccc(Cl)cc2C1 (stereo not shown) [Compound 4ET-03-054]	8.6 nM	
